Reference: US5270339A, “Phenoxybenzene derivative” (Kanagafuchi Kagaku Kogyo Kabushiki Kaisha, priority 1991, dated 1993)

Key:
[1] = test system: experimental amnesia in mice induced by cycloheximide; test: Anti-amnesic effect: passive avoidance task (step-through), cycloheximide-induced amnesia; type: in vivo, ddY male mice; details: for Step-through latency: mean of group; for responders at 1 mg/kg / responders at 3 mg/kg: Mus musculus, mice with latency > 100 seconds, read-out: Ratio of memory
Procedure: (§1) As experimental animals, Wistar male rats and ddY male mice were used for the tests after they were housed for a week under every 12 hours' dark-light cycle at room temperature of 24° to 26° C.
The effect on experimental amnesia in mice induced by cycloheximide was evaluated.
The experiment was carried out using an experimental apparatus of passive avoidance task for mice (made by Ohara-ika-sangyo K. K.) comprising a box divided into the two compartments of dark and light. That is, the dark compartment [a box having a reverse trapezoid cross section (height: 8 cm, base line: 5 cm, oblique line: 9.5 cm) and having the length of 14 cm] was shield from a light with a black plastic case and was floored with stainless grids for giving an electrical shock so that an electricity might be turned on a determined time after interception of a photobeam placed in the dark compartment. The light compartment made of transparent plastic (a box of the same shape as that of the dark compartment having the length of 16 cm, lightened from a location spaced 25 cm above by a 60 W electric lamp) was provided adjacent to the dark compartment. Between the two compartments, there was provided a circular entrance having the diameter of 3 cm with a guillotine door which could be opened and closed. By using the above-mentioned dark-light box, the experiment was carried out according to the following procedure.
A mouse (5 week-old) previously conditioned in the dark-light box was put in the light compartment and the guillotine door was opened. Three seconds after the mouse moved into the dark compartment and interrupted the photobeam, 0.3 mA electrical shock was given to limbs for 3 seconds from the floor grid (aquisition trial). Just after the mouse rushed into the light compartment, the door was shut and the […] in the light compartment was picked out to return to his home cage. After 24 hours, the mouse was placed again in the light compartment and the period from the opening of the guillotine door to the time the mouse completely entered the dark compartment was recorded maximally 300 seconds as a step-through latency (retention trial).
The amnesia was induced by subcutaneous injection of cycloheximide (120 mg/kg) dissolved in saline 10 minutes before the aquisition trial. As a control, the same amount of saline alone was administered. […]
A ratio of number of mice showing the step-through latency of more than 100 seconds in the group was defined as a ratio of memory for convenience's sake.
The step-through latency in Table 2 was the mean value for each treated group.

[2] = target: T1, M1 receptor (Rattus norvegicus, UniProt P08482); test: Receptor binding activity, inhibition of [3H]pyrenzepine binding to M1; details: 1 nM [3H]pyrenzepine, rat's brain except cerebellum; for inhibition at 10 µM: 10 μM test compound
T1 construct: rat's brain except for cerebellum was homogenized; from tissue; host or cells: rat brain except cerebellum, homogenate
T1 sequence (P08482 1-460): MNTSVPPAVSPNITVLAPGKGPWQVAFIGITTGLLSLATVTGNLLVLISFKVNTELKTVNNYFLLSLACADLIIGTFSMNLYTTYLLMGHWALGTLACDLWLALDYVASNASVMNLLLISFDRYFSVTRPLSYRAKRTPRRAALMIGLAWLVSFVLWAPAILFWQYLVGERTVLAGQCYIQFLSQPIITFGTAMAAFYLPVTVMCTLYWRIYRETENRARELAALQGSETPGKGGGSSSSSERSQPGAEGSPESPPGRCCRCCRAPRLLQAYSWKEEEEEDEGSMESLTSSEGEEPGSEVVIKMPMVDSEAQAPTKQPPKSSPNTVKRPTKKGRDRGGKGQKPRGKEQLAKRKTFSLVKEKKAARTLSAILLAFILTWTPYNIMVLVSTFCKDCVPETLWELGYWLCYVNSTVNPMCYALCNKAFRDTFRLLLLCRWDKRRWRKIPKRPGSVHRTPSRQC
Procedure: The binding ability of the test compounds to M1 was determined according to a modification of the method of Watson et al. (Life Sci., 32, 3001 (1983)). […] The mixture was incubated for 1 hour. The inhibition rate (%) of the binding with [3H]pyrenzepine was evaluated. The higher inhibition means the higher affinity of the test compound for M1 receptor.

[3] = Acute toxicity test, oral; type: in vivo, ddY male mice; details: mouse, in vivo, ddY mice, 2 weeks observation
Procedure: With respect to the compounds 1 to 86 shown in Table 1 as test compounds, the acute toxicity was examined using ddY mice according to the following method.
In each group, six male ddY mice weighing 27 to 30 g were employed. The compounds 1 to 86 suspended in an aqueous solution of 0.5% sodium carboxymethylcellulose were administered orally in a volume of 0.1 ml/10 g body weight. […] The LD50 (mg/kg) values were estimated from the ratio of the number of dead mice to the number of mice used.

[4] = test system: forced swimming test with rats (duration of immobility); test: Antidepressant activity: forced swimming test using rats; type: in vivo, Wistar male rats; details: for Suppression of duration of immobility: vs saline; for Effect on duration of immobility (in words): oral administration
Procedure: as §1
That is, a rat (5 week-old) was placed into a glass cylinder having the inside diameter of 18 cm and the height of 40 cm which contained water (water temperature: 25° C.) up to its height of 15 cm. After 15 minutes, the rat was picked up followed by drying and then returned to his home cage. After 24 hours, the rat was again placed into the water in the same cylinder. The duration of immobility (the time rat kept motionless) was accumulatively measured with a stopwatch for five minutes (a five minutes' test). Each test compound was suspended in saline. The administration was carried out three times, at 24, 5 and 1 hour before the five minutes' test in case of an intraperitoneal administration or with only a single administration at 1 hour before the five minutes' test in case of an oral administration to examine the antidepressant effect.
The duration of immobility in Table 4 is the mean value for […] in each group. Suppression is expressed as a ratio in percentage of a reduction of the duration of immobility in the group administered with the test compound to that in the control group administered with saline alone.

[5] = p.o., 30 mg/kg, 1 hour before test

Structure (SMILES) | Step-through latency ([1]; 1 mg/kg oral) [s] | responders at 1 mg/kg ([1]; 1 mg/kg oral) [%] | Step-through latency ([1]; 3 mg/kg oral) [s] | responders at 3 mg/kg ([1]; 3 mg/kg oral) [%] | LD50 at 336 h [3] [mg/kg] | other results
CCN1CCC(=Cc2cccc(Oc3ccccc3)c2)C1 [Compound 67] | 100 | 50 |  |  |  | Inhibition of the binding with [3H]pyrenzepine (M1) ([2]; 1 μM test compound): 78%
O=C1NC(N2CCCC2)CC1=Cc1cccc(Oc2ccccc2)c1 (stereo not shown) [Compound 59] |  |  | 157 | 50 | ≥ 500 | inhibition at 10 µM [2]: 56%
O=C1C(=Cc2cccc(Oc3ccccc3)c2)CCN1CCF [Compound 26] | 196 | 75 |  |  | ≥ 500 | inhibition at 10 µM [2]: 87%
C=CCN1CCC(=Cc2cccc(Oc3ccccc3)c2)C1=O [Compound 20] |  |  |  |  | ≥ 500 | inhibition at 10 µM [2]: 88%
CCN1CC(=Cc2cccc(Oc3ccccc3)c2)CC1C (stereo not shown) [Compound 75] | 160 | 50 |  |  | ≥ 500 | inhibition at 1 µM ([2]; 1 μM test compound): 65%
CCN1CC(=Cc2cccc(Oc3ccccc3)c2)C(C)C1 (stereo not shown) [Compound 76] | 109 | 50 |  |  | ≥ 500 | inhibition at 1 µM ([2]; 1 μM test compound): 80%
NC(=O)CN1CCC(=Cc2cccc(Oc3ccccc3)c2)C1=O [Compound 32] | 94 | 50 |  |  | ≥ 500 | inhibition at 10 µM [2]: 91%
O=C1NCCC1=Cc1cccc(Oc2ccccc2)c1 [Compound 1] |  |  | 198 | 72 | ≥ 500 | Duration of immobility ([4]; i.p., 1 mg/kg/time, 24, 5 and 1 hour before test): 164 s; Suppression of duration of immobility ([4]; i.p., 1 mg/kg/time): 20%; Duration of immobility ([4]; i.p., 3 mg/kg/time, 24, 5 and 1 hour before test): 101 s; Suppression of duration of immobility ([4]; i.p., 3 mg/kg/time): 50%; Duration of immobility ([4]; i.p., 10 mg/kg/time, 24, 5 and 1 hour before test): 71 s; Suppression of duration of immobility ([4]; i.p., 10 mg/kg/time): 65%; Duration of immobility ([4]; i.p., 30 mg/kg/time, 24, 5 and 1 hour before test): 54 s; Suppression of duration of immobility ([4]; i.p., 30 mg/kg/time): 74%; Duration of immobility ([4]; p.o., 0.3 mg/kg, 1 hour before test): 190 s; Suppression of duration of immobility ([4]; p.o., 0.3 mg/kg): 7%; Duration of immobility ([4]; p.o., 1 mg/kg, 1 hour before test): 165 s; Suppression of duration of immobility ([4]; p.o., 1 mg/kg): 20%; Duration of immobility ([4]; p.o., 3 mg/kg, 1 hour before test): 137 s; Suppression of duration of immobility ([4]; p.o., 3 mg/kg): 33%; Duration of immobility ([4]; p.o., 10 mg/kg, 1 hour before test): 76 s; Suppression of duration of immobility ([4]; p.o., 10 mg/kg): 63%; Duration of immobility [4, 5]: 34 s; Suppression of duration of immobility ([4]; p.o., 30 mg/kg): 83%
CN1CCC(=Cc2cccc(Oc3ccccc3)c2)C1 [Compound 65] | 117 | 50 |  |  | ≥ 500 | inhibition at 10 µM [2]: 52%
CCN1CCC(Cc2cccc(Oc3ccccc3)c2)C1=O (stereo not shown) [Compound 82] |  |  | 102 | 38 | ≥ 500 | 
CN(C)CCCN1c2ccccc2CCc2ccccc21 [Imipramine, imipramine, reference compound] |  |  |  |  |  | Duration of immobility ([4]; i.p., 100 mg/kg/time, 24, 5 and 1 hour before test): 79 s; Suppression of duration of immobility ([4]; i.p., 100 mg/kg/time): 61%; Effect on duration of immobility (in words) [4]: no effect; Duration of immobility [4, 5]: 210 s; Suppression of duration of immobility ([4]; p.o., 30 mg/kg): -2%
C#CCN(C)Cc1ccccc1 [Pargyline, pargyline, reference compound] |  |  |  |  |  | Effect on duration of immobility (in words) [4]: prolongation of the duration of immobility; Duration of immobility [4, 5]: 244 s; Suppression of duration of immobility ([4]; p.o., 30 mg/kg): -19%
CCCCCCN1CCC(=Cc2cccc(Oc3ccccc3)c2)C1=O [Compound 13] |  |  | 132 | 38 | ≥ 500 | 
O=C1NCCC1=Cc1ccc(Oc2ccccc2)cc1 [Compound 2] |  |  | 188 | 75 | ≥ 500 | 
O=C1C(=Cc2cccc(Oc3ccccc3)c2)CCN1c1ccccc1 [Compound 46] |  |  | 172 | 75 | ≥ 500 | 
CCOC1CC(=Cc2cccc(Oc3ccccc3)c2)C(=O)N1 (stereo not shown) [Compound 56] |  |  | 129 | 63 | ≥ 500 | 
CCC1C(=Cc2cccc(Oc3ccccc3)c2)CCN1CC (stereo not shown) [Compound 78] | 132 | 75 |  |  | ≥ 500 | 
CN(C)CCNC(=O)CN1CCC(=Cc2cccc(Oc3ccccc3)c2)C1=O [Compound 36] | 163 | 75 |  |  | ≥ 500 | 
O=C1C(=Cc2cccc(Oc3ccccc3)c2)CCN1Cc1ccc(Cl)cc1 [Compound 50] |  |  | 100 | 50 | ≥ 500 | 
CN(C)N1CCC(=Cc2cccc(Oc3ccccc3)c2)C1=O [Compound 38] | 100 | 50 |  |  | ≥ 500 | 
CN(C)C(=O)CN1CCC(=Cc2cccc(Oc3ccccc3)c2)C1=O [Compound 35] | 103 | 50 |  |  | ≥ 500 | 
O=C1NCC(c2ccccc2)C1=Cc1cccc(Oc2ccccc2)c1 (stereo not shown) [Compound 62] |  |  | 170 | 50 | ≥ 500 | 
OCCN1CCC(=Cc2cccc(Oc3ccccc3)c2)C1 [Compound 71] | 212 | 75 |  |  | ≥ 500 | 
CN1CCC(=Cc2cccc(Oc3ccccc3)c2)C1=O [Compound 9] |  |  | 151 | 75 | ≥ 500 | 
CCN1CC(C)C(=Cc2cccc(Oc3ccccc3)c2)C1=O (stereo not shown) [Compound 61] | 90 | 50 |  |  | ≥ 500 | 
COc1ccc(CN2CCC(=Cc3cccc(Oc4ccccc4)c3)C2=O)cc1 [Compound 49] | 102 | 50 |  |  | ≥ 500 | 
